Literature values in article PMC4955775 (Bioorganic & medicinal chemistry letters, 2016).
[ ]: non-standard residue; d: D form. Dmt = Cc1cc(O)cc(C)c1C[C@H](N)C(=O)O; Tic = O=C(O)[C@@H]1Cc2ccccc2CN1

Row | Molecule | fold increased binding affinity at μ receptor compared to TIPP-NH2 (μ receptor) [fold] | fold increased binding affinity at δ receptor compared to TIPP-NH2 (δ receptor) [fold] | duration of the antinociceptive effect, times longer than morphine [times]
1 | H-[Dmt][Tic]FF-NH2 [DIPP-NH2] | 65 | 25 | –
2 | Cc1cc(O)cc(C)c1C[C@H](N)C(=O)N[C@H](CCCNC(=N)N)C(=O)N[C@@H](Cc1ccccc1)C(=O)N[C@@H](CCCCN)C(N)=O [Compound 5, H-Dmt-D-Arg-Phe-Lys-NH2] | – | – | 4
